Calls of active or inactive are those of the source. The rule behind the calls is not given here.
Columns and labels:
Type in all cases: functional, cell-based
C8161 [1] = test: Inhibition of [DEDTC]2-Cu-induced cytotoxicity against human C8161 cells at 50 uM
C8161 [2] = test: Inhibition of [DEDTC]2-Cu-induced iNOS-down regulation human C8161 cells
SK-BR-3 [3] = test: Inhibition of [DEDTC]2-Cu-induced cytotoxicity against human SK-BR-3 cells at 50 uM
SK-BR-3 [4] = test: Inhibition of [DEDTC]2-Cu-induced apoptosis in human SK-BR-3 cells assessed as PARP-cleavage at 50 uM

Structure (SMILES): NCCN(CCN)N(O)N=O
- Activity (C8161 [1]): Active

Structure (SMILES): CC(=O)N[C@@H](C(=O)O)C(C)(C)SN=O
- Activity (C8161 [2]): Active
- Activity (C8161 [1]): Active
- Activity (SK-BR-3 [3]): Active
- Activity (SK-BR-3 [4]): Active

Source: ChEMBL document CHEMBL1154910, “Nitric oxide donors or nitrite counteract copper-[dithiocarbamate](2)-mediated tumor cell death and inducible nitric oxide synthase down-regulation: possible role of a nitrosyl-copper [dithiocarbamate](2) complex” (J Med Chem, 2010)
